Legend:
Test in all cases: combination Emax (second highest fraction inhibited in the dose matrix, 72 h); higher = more inhibition; extreme values may be limits of the assay
[1] = test system: MOLT-16 (T-Lymphoblastic Leukemia)
How it was run: (§1)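 Bliss excess equals the observed combination effect minus the expected value EA + EB − EA·EB, where EA and EB are the effects of each agent alone. Combination Emax is the second-highest inhibition within the matrix. Inhibition was scaled from CellTiter-Glo 2.0 luminescence, with 0 set by vehicle wells and 1 by blank wells, after 72 hours of two-drug dosing of cells plated in 1536-well plates.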

[2] = test system: NCI-H847 (Small Cell Lung Carcinoma)
How it was run: as §1

[3] = test system: HL-60 (Acute Myeloid Leukemia)
How it was run: as §1

[4] = test system: MEL-JUSO (Melanoma)
How it was run: as §1

[5] = test system: SU-DHL-8 (B-Cell Non-Hodgkin's Lymphoma)
How it was run: as §1

[6] = test system: TC-71 (Ewing's Sarcoma)
How it was run: as §1

[7] = test system: ES1 (Ewing's Sarcoma)
How it was run: as §1

[8] = test system: SW1417 (Colorectal Carcinoma)
How it was run: as §1

[9] = test system: DiFi (Colorectal Carcinoma)
How it was run: as §1

[10] = test system: L-540 (Hodgkin's Lymphoma)
How it was run: as §1

[11] = test system: SW837 (Colorectal Carcinoma)
How it was run: as §1

[12] = test system: KARPAS-45 (T-Lymphoblastic Leukemia)
How it was run: as §1

[13] = test system: ES8 (Ewing's Sarcoma)
How it was run: as §1

[14] = test system: MS751 (Cervical Carcinoma)
How it was run: as §1

[15] = test system: TE-6 (Esophageal Squamous Cell Carcinoma)
How it was run: as §1

[16] = test system: TOV-112D (Ovarian Carcinoma)
How it was run: as §1

[17] = test system: SR (Other Blood Carcinomas)
How it was run: as §1

[18] = test system: MFM-223 (Breast Carcinoma)
How it was run: as §1

[19] = test system: GR-ST (B-Lymphoblastic Leukemia)
How it was run: as §1

[20] = test system: LN-18 (Glioblastoma)
How it was run: as §1

Row | Compound | combination Emax [1] | combination Emax [2] | combination Emax [3] | combination Emax [4] | combination Emax [5] | combination Emax [6] | combination Emax [7] | combination Emax [8] | combination Emax [9] | combination Emax [10] | combination Emax [11] | combination Emax [12] | combination Emax [13] | combination Emax [14] | combination Emax [15] | combination Emax [16] | combination Emax [17] | combination Emax [18] | combination Emax [19] | combination Emax [20]
1 | Cc1c2c(nn1C)CSCc1cc(n(C)n1)CSc1cc(c3ccccc3c1)OCCCc1c(C(=O)O)n(C)c3c-2c(Cl)ccc13 [AZD5991] + CC1(C)CCC(CN2CCN(c3ccc(C(=O)NS(=O)(=O)c4ccc(NCC5CCOCC5)c([N+](=O)[O-])c4)c(Oc4cnc5[nH]ccc5c4)c3)CC2)=C(c2ccc(Cl)cc2)C1 [Venetoclax] (first compound max 1 µM, 7x7, partner max 1 µM) | 1 | 0.98 | 1 | 0.339 | 0.861 | 0.831 | 0.93 | 0.191 | 0.624 | 1 | 0.184 | 1 | 0.864 | 0.812 | 0.677 | 0.777 | 0.964 | 0.276 | 0.124 | 0.374
2 | Cc1c2c(nn1C)CSCc1cc(n(C)n1)CSc1cc(c3ccccc3c1)OCCCc1c(C(=O)O)n(C)c3c-2c(Cl)ccc13 [AZD5991] + Cn1cnc2c(F)c(Nc3ccc(Br)cc3Cl)c(C(=O)NOCCO)cc21 [Selumetinib] (first compound max 1 µM, 7x7, partner max 3 µM) | 1 | 0.863 | 1 | 0.669 | 0.655 | 0.578 | 0.777 | 0.527 | 0.875 | 1 | 0.325 | 0.922 | 0.521 | 0.896 | 0.62 | 0.414 | 0.952 | 0.282 | 0.0688 | 0.315
3 | CN(CCO)CC[C@H](CSc1ccccc1)Nc1ccc(S(=O)(=O)NC(=O)c2ccc(N3CCC([C@@H](O)c4ccccc4-c4ccc(Cl)cc4)CC3)cc2)cc1S(=O)(=O)C(F)(F)F [AZD4320] + Cn1cnc2c(F)c(Nc3ccc(Br)cc3Cl)c(C(=O)NOCCO)cc21 [Selumetinib] (first compound max 1 µM, 7x7, partner max 3 µM) | 1 | 1 | 0.994 | 0.432 | 0.988 | 0.985 | 0.786 | 0.935 | 0.951 | 0.716 | 0.489 | 0.996 | 0.99 | 0.413 | 0.593 | 0.248 | 0.731 |  | 0.494 | 0.329
4 | COc1cc2c(cc1OCCCCCOc1cc3c(cc1OC)C(=O)N1C=C(C)C[C@H]1C=N3)N=C[C@@H]1CC(C)=CN1C2=O [SG3199] + O=C(c1cc(Cc2n[nH]c(=O)c3ccccc23)ccc1F)N1CCN(C(=O)C2CC2)CC1 [Olaparib] (first compound max 0.001 µM, 7x7, partner max 10 µM) | 0.659 | 0.509 | 0.133 | 0.0923 | 0.55 | 0.518 | 0.689 | 0.0642 | 0.107 | 0.32 | 0.0782 | 0.0966 | 0.828 | 0.176 | 0.117 | 0.269 | 0.445 | 0.128 | 0.359 | 0.132
5 | CN(CCO)CC[C@H](CSc1ccccc1)Nc1ccc(S(=O)(=O)NC(=O)c2ccc(N3CCC([C@@H](O)c4ccccc4-c4ccc(Cl)cc4)CC3)cc2)cc1S(=O)(=O)C(F)(F)F [AZD4320] + C1CN(CCC1(C(=O)N[C@@H](CCO)C2=CC=C(C=C2)Cl)N)C3=NC=NC4=C3C=CN4 [Capivasertib] (first compound max 1 µM, 7x7, partner max 3 µM) | 1 | 1 | 0.873 | 0.139 | 0.916 | 0.544 | 0.246 | 0.709 | 0.804 | 0.279 | 0.104 | 0.987 | 0.493 | 0.132 | 0.633 | 0.131 | 0.49 | 0.741 | 0.402 | 0.298
6 | CN(C)CCCOc1ccc(-c2ccc3ncc4c(c3c2)n(C2CCOCC2)c(=O)n4C)cn1 [AZD0156] + O=C(c1cc(Cc2n[nH]c(=O)c3ccccc23)ccc1F)N1CCN(C(=O)C2CC2)CC1 [Olaparib] (first compound max 3 µM, partner max 3 µM) | 0.914 | 0.64 | 0.489 | 0.115 | 0.266 | 0.804 | 0.834 | 0.135 | 0.223 | 0.406 | 0.185 | 0.238 | 0.877 | 0.232 | 0.417 | 0.552 | 0.675 | 0.179 | 0.6 | 0.203
7 | CN(C)CCCOc1ccc(-c2ccc3ncc4c(c3c2)n(C2CCOCC2)c(=O)n4C)cn1 [AZD0156] + CCN(CCO)CCCOc1ccc2c(Nc3cc(CC(=O)Nc4cccc(F)c4)[nH]n3)ncnc2c1 [AZD2811] (first compound max 1 µM, 7x7, partner max 1 µM) | 1 | 0.949 | 0.832 | 0.16 | 0.253 | 0.837 | 0.69 | 0.104 | 0.416 | 0.366 | 0.0741 | 0.919 | 1 | 0.326 | 0.236 | 0.35 | 0.849 | 0.168 | 0.276 | 0.33
8 | CN(CCO)CC[C@H](CSc1ccccc1)Nc1ccc(S(=O)(=O)NC(=O)c2ccc(N3CCC([C@@H](O)c4ccccc4-c4ccc(Cl)cc4)CC3)cc2)cc1S(=O)(=O)C(F)(F)F [AZD4320] + CCN(CCO)CCCOc1ccc2c(Nc3cc(CC(=O)Nc4cccc(F)c4)[nH]n3)ncnc2c1 [AZD2811] (first compound max 1 µM, 7x7, partner max 1 µM) | 1 | 1 | 0.958 | 0.446 | 1 |  | 0.613 | 0.759 | 0.882 | 0.594 | 0.508 | 1 | 1 | 0.348 | 0.524 | 0.485 | 0.938 | 0.693 | 0.151 | 0.584
9 | Cc1c2c(nn1C)CSCc1cc(n(C)n1)CSc1cc(c3ccccc3c1)OCCCc1c(C(=O)O)n(C)c3c-2c(Cl)ccc13 [AZD5991] + C=CCn1c(=O)c2cnc(Nc3ccc(N4CCN(C)CC4)cc3)nc2n1-c1cccc(C(C)(C)O)n1 [AZD1775] (first compound max 1 µM, partner max 1 µM) | 1 | 1 | 1 | 0.749 | 1 | 0.578 |  | 0.542 | 0.856 | 1 | 0.406 | 1 | 0.717 | 0.9 | 0.773 | 0.714 | 0.923 | 0.562 | 0.791 | 0.602
10 | CN(CCO)CC[C@H](CSc1ccccc1)Nc1ccc(S(=O)(=O)NC(=O)c2ccc(N3CCC([C@@H](O)c4ccccc4-c4ccc(Cl)cc4)CC3)cc2)cc1S(=O)(=O)C(F)(F)F [AZD4320] + C[C@@H](Nc1cc(F)cc(F)c1)c1cc(C(=O)N(C)C)cc2c(=O)cc(N3CCOCC3)oc12 [AZD8186] (first compound max 1 µM, 7x7, partner max 3 µM) | 1 | 1 | 0.958 | 0.428 | 1 | 1 | 0.725 | 0.707 | 0.961 | 0.668 | 0.395 | 1 | 0.99 | 0.3 | 0.563 | 0.205 | 0.713 |  | 0.537 | 0.555
11 | CCc1c2c(nc3ccc(O)cc13)-c1cc3c(c(=O)n1C2)COC(=O)[C@]3(O)CC [SN-38] + O=C(c1cc(Cc2n[nH]c(=O)c3ccccc23)ccc1F)N1CCN(C(=O)C2CC2)CC1 [Olaparib] (first compound max 0.3 µM, 7x7, partner max 10 µM) |  | 1 |  |  |  |  | 1 | 0.694 | 0.701 | 0.965 | 0.506 |  | 0.989 | 0.899 |  | 0.965 | 0.982 | 0.257 | 0.74 | 
12 | CN(CCO)CC[C@H](CSc1ccccc1)Nc1ccc(S(=O)(=O)NC(=O)c2ccc(N3CCC([C@@H](O)c4ccccc4-c4ccc(Cl)cc4)CC3)cc2)cc1S(=O)(=O)C(F)(F)F [AZD4320] + C[C@@H]1COCCN1C2=NC(=NC(=C2)C3(CC3)[S@](=N)(=O)C)C4=C5C=CNC5=NC=C4 [AZD6738] (first compound max 1 µM, 7x7, partner max 10 µM) | 1 | 1 | 0.95 | 0.642 | 1 | 1 | 0.942 |  | 0.954 | 0.969 | 0.585 | 1 | 1 | 0.378 | 0.792 | 0.729 | 0.982 | 0.842 | 0.745 | 0.847
